Measurements taken from patent publication US20230341377A1, “DISCONNECTION AGENTS” (DC Europa Limited, priority 2020, published 2023).

Assays:
Hs578T cells = test: SMS assay in Hs578T cells; format: cell-based, human; conditions: versus vehicle and PMA (5 nM), FIG. 2A, 2B, 2D, 2E
From the text: The SMS assay was developed to assess the transfer of cell dye (for example the acetoxymethyl [AM]-based Calcein AM), between cancer cells. The SMS assay can be applied to any cell lines forming tumour networks such as tumour microtubes (TM) or tunneling nanotubes (TNT), which enable the transfer of molecules across cells. The SMS assay can be used to assess networking capabilities of any cancer cell lines including HepG2 hepatocellular carcinoma cells, Hs578T cell line for human breast cancer, and U373 cell line for human glioblastoma.
The SMS assay is illustrated in FIG. 1. For the SMS assay, two sets of cells are stained with the cell dye of choice and a customary cell tracker dye (for example cell tracker blue) using established staining techniques (steps 1 and 2). Each set of cells are then co-incubated with the compound of interest to assess its capabilities to modulate the cells small molecule sharing characteristics (step 3). Then the two sets of cells are combined on a plate, for example at a ratio of 1:1, and cultured in the presence of the compound of interest (Step 4).
Finally, live cells are evaluated for viability and analyzed by flow cytometry for the uptake of cell dye in the […] cells (Step 5). The comparison of cell tracker uptake against positive and negative control enables the assessment of the compound's ability to modulate the tumour networks including those formed by TM and TNTs
The SMS assay has been applied to assess the modulation of network sharing capabilities of Protein Kinase C Modulators (PKCm) at various concentrations in the Hs578 cell line for human breast cancer, U373 cell line of human glioblastoma, and HepG2 hepatocellular carcinoma cells. PBS vehicle was used as negative control and the PKCm PHORBOL 12-MYRISTATE 13-ACETATE (PMA) at a concentration of 5 nM was used as the positive control.
FIG. 2A and FIG. 2B show the percentage of cell tracker cells that were accepting the cell dye transfer from separately stained donor cells according to the SMS assay of Example. The percentage of acceptor cells detected is shown in comparison to vehicle (upper horizontal line) and PMA at 5-10 nM concentration (lower horizontal line). Active PKCm in the SMS assay (FIG. 2A) show a decrease in acceptor cells relative to vehicle at certain concentration. […] The upper limit of the tested concentrations was determined as the maximal non-cytotoxic dose.

[1] = test system: patient-derived glioblastoma cells from the Glio10535 model; test: Example 5: subcutaneous Glio10535 glioblastoma, TPPB with temozolomide, relative tumour volume; format: in vivo, NMRI nude mice
Description: NMRI nude mice were subcutaneously implanted with patient-derived glioblastoma cells from the Glio10535 model (Orthmann et al.) on day 0.
Animals were stratified into the treatment groups on day 6 after tumour implantation to achieve similar average tumour volumes per group. Minimal tumour sizes were 44 mm^3 and maximal tumour sizes were 247 mm^3. Vehicle animals (n=9) were treated with a mix of DMSO, Tween20 and PBS. Each 5 animals were orally dosed with temozolomide chemotherapy at 25 mg/kg (TMZ 25) and at 50 mg/kg (TMZ 50) on consecutive days per week. Each week represents one chemotherapy cycle of 5 treatment days and 2 off-treatment days. TPPB was dosed intraperitoneally in combination with 25 mg/kg oral temozolomide either continuously at 0.2 mg/kg (n=10) or intermittently (n=10) at 0.1, 0.4, and 0.7 mg/kg starting with the last dose of every TMZ 25 cycle and ending the day before the next treatment cycle. Before the start of chemotherapy, TPPB was titrated to its target dose.

[2] = test system: human patient-derived S24 glioblastoma cells; test: Example 6: orthotopic S24 glioblastoma, TPPB followed by radiotherapy, intravital microscopy; format: in vivo, NMRI mice
Description: Orthotopic brain tumours were induced in NMRI mice using human patient-derived S24 glioblastoma cells exactly as described in Example 4. Once significant tumours were established in vivo (approximately 35 days after implantation), as shown by intravital microscopy exactly as described in Example 4, mice received 4 intraperitoneal injections on day -1, day 6 and day 13 and day 20, with Control mice receiving vehicle only and Treated mice receiving TPPB at 200 μg/kg. All mice then received radiotherapy on days 0, 1 and 2 exactly as described in Example 4, except that the radiation dose was 6 Gy as opposed to 7 Gy on each occasion (18 Gy total radiation dose as opposed to 21 Gy total radiation dose). The impact of treatment on the tumour was then monitored by intravital microscopy at intervals after the initiation of radiotherapy on day 0.

PKCα = PKCα (Homo sapiens, UniProt P17252); parameters: key: +—activation; ++—strong activation; conditions: cPKCs, gene PRKCA; cited from earlier work
PKCδ = PKCδ (Homo sapiens, UniProt Q05655); parameters: key: +—activation; ++—strong activation; conditions: nPKCs, gene PRKCD; cited from earlier work
PKCε = biological target: T1, PKCε (Homo sapiens, UniProt Q02156); parameters: key: +—activation; ++—strong activation; conditions: nPKCs, gene PRKCE; cited from earlier work
T1 sequence (Q02156 1-737): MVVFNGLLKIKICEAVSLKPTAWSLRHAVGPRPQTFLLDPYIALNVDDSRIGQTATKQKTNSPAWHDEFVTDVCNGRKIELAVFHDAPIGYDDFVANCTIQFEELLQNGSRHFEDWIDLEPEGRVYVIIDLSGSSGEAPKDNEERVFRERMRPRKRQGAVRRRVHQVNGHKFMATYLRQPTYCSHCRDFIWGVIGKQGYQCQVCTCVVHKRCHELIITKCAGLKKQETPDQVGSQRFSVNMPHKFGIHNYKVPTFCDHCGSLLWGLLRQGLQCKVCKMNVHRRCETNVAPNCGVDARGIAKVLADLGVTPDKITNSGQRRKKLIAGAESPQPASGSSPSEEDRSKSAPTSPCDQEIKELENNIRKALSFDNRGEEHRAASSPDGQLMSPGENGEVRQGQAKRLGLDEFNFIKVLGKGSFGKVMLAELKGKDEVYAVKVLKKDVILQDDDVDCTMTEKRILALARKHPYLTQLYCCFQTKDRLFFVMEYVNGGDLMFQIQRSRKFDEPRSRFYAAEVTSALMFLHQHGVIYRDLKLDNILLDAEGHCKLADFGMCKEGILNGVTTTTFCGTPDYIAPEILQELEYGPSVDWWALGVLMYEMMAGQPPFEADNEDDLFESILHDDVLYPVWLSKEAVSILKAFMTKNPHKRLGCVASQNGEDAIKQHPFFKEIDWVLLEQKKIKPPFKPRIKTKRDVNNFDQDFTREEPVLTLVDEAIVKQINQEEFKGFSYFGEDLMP

[3] = intermittent TPPB 0.7 2× per week i.p. + TMZ 25 mg/kg oral, by 38
[4] = TPPB 200 μg/kg i.p. followed by radiotherapy, all mice

Sequence of PKCδ (Q05655 whole entry): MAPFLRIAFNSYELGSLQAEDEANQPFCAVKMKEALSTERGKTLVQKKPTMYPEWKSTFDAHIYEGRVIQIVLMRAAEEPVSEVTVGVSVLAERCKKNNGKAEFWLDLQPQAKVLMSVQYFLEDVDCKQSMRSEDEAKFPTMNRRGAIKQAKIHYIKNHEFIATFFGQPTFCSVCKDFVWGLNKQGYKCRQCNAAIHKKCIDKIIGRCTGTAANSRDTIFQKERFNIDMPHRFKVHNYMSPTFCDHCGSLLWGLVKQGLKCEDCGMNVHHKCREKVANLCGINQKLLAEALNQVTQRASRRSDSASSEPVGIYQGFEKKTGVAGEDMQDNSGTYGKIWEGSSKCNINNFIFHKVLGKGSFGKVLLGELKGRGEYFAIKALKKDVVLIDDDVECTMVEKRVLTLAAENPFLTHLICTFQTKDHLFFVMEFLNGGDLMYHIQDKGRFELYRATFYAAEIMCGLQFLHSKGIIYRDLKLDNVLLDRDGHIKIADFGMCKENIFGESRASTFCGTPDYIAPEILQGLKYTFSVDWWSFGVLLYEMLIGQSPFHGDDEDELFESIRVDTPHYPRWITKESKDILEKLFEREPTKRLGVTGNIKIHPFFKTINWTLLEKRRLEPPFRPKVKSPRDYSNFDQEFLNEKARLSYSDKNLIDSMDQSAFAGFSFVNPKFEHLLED

CC(C)[C@H]1C(=O)N[C@H](CO)Cc2cc(NC(=O)/C=C/C=C/c3ccc(C(F)(F)F)cc3)ccc2N1C [TPPB, (2E,4E)-N-[(2S,5S)-1,2,3,4,5,6-Hexahydro-5-(hydroxymethyl)-1-methyl-2-(1-methylethyl)-3-oxo-1,4-benzodiazocin-8-yl]-5-[4-(trifluoromethyl)phenyl]-2,4-pentadienamide]
cell dye-sharing in the SMS assay (percentage of acceptor cells) (Hs578T cells): inhibition of cell dye-sharing | effect over control ([1]; continuous dosing with TPPB (0.2 mg/kg QD i.p. + TMZ 25)): no effect over control | anti-tumour effect (relative tumour volume) compared with TMZ 25 monotherapy [1, 3]: additive to the effect of temozolomide 25 mg/kg monotherapy | anti-tumour effect (relative tumour volume) compared with continuous TPPB 0.2 QD + TMZ 25 [1, 3]: superior to continuous treatment with TPPB | tumour growth ([1]; intermittent dosing with TPPB (+ TMZ 25)): tumour growth inhibition | tumour cell morphology ([2]; TPPB 200 μg/kg i.p. + radiotherapy, from day 35 after initiation of radiotherapy): marked change in morphology | outcome of orthotopic solid brain tumour ([2]; TPPB 200 μg/kg i.p. day -1, 6, 13, 20, radiotherapy 6 Gy days 0, 1, 2, by day 91): complete cure | tumour cells in field of view ([2]; TPPB 200 μg/kg i.p. day -1, 6, 13, 20, radiotherapy 6 Gy days 0, 1, 2, day 91): no detectable tumour cells | behavioural or clinical signs associated with the treatment [2, 4]: no behavioural or clinical signs | tolerability [2, 4]: well tolerated | activation of PKCα (PKCα): ++ | activation of PKCδ (PKCδ): + | activation of PKCε (PKCε): +
